According to patent US20080319078A1, “Triphenylethylene Compounds Useful as Selective Estrogen Receptor Modulators” (priority 2005, published 2008):

- melting point: 253 to 254 °C
SMILES: CCC(=C(c1ccc(O)cc1)c1ccc(O)cc1)c1ccc(OCC(=O)O)c(OC)c1 [Example 4, {[4-[1-Ethyl-2,2-bis(4-hydroxyphenyl)ethenyl]-2-(methyloxy)phenyl]oxy}acetic acid]
